Drawing on PubChem BioAssay AID652140 (Sanford-Burnham Center for Chemical Genomics, 2013), this text covers IC50 for 28 compounds.

The assay relates to C. elegans VP596 gst-4::GFP/RFP ratio, acrylamide, 24 h. Kind of assay: analog inhibition of acrylamide-induced gst-4::GFP reporter, SAR follow-up, SKN-1 inhibitor project, whole organism, GFP/RFP fluorescence ratio, strain VP596 (AID 652140).

Calls of active or inactive are those of the source.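 Rule for the calls: active = compounds whose IC50 against the worm SKN-1 reporter ratio signal is 5 µM or lower; inactive = the rest.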 Where only a bound is given, the exact number is not on record here.

One may read the IC50 as the point on the concentration scale where inhibition reaches its midpoint. For the compound `CCOc1cc(CNC2CCCC2)cc(Cl)c1OCc1ccc(F)cc1`, the IC50 was 1.04 µM.
The figure for `CCOc1cc(CNC2CCCC2)cc(Cl)c1OCc1cccc(F)c1` is 7.17 µM (inactive); for `Fc1ccc(COc2ccc(CNC3CCCC3)cc2Cl)cc1` it is 4.18 µM.
The figure for `c1ccc(-c2csc(-c3cccnc3)n2)cc1` is 19.6 µM (inactive); for `Fc1ccc(-c2csc(-c3ccncc3)n2)cc1` it is 2.03 µM; for `CCOc1cc(CNC(C)C)cc(Cl)c1OCc1ccc(F)cc1` it is 16.7 µM (inactive).
Then `CCOc1cc(CNC2CCCC2)cc(Cl)c1OCc1ccc(Cl)cc1`, with 0.244 µM; and `c1ccc(-c2csc(-c3ccncc3)n2)cc1`, with 2.58 µM; and `Cc1ccc(-c2csc(-c3ccncc3)n2)cc1`, with 17.7 µM (inactive).
`CCOc1cc(CNC2CCCC2)cc(Cl)c1OCc1ccc(C)cc1`: the IC50 is 25.8 µM (inactive).
The figure for `Clc1ccc(-c2csc(-c3ccncc3)n2)cc1` is 1.1 µM.
Then `CCOc1cc(CNC2CCCCC2)cc(Cl)c1OCc1ccc(F)cc1`, with 9.66 µM (inactive).
Then `CCOc1cc(CNc2ccccc2)cc(Cl)c1OCc1ccc(F)cc1`, with > 64 µM (inactive); and `Fc1ccc(-c2csc(-c3cccnc3)n2)cc1`, with 6.09 µM (inactive); and `CCOc1cc(CNCc2ccccc2)cc(Cl)c1OCc1ccc(F)cc1`, with 17.4 µM (inactive).
Consider `CCOc1cc(CNC2CC2)cc(Cl)c1OCc1ccc(F)cc1`, for which the IC50 is 1.96 µM.
The figure for `CCOc1cc(CNC2CCC2)cc(Cl)c1OCc1ccc(F)cc1` is 8.68 µM (inactive).
Then `CCOc1cc(CNC2CCCC2)cc(Cl)c1OCc1ccccc1Cl`, with 12 µM (inactive); and `COc1ccc(-c2csc(-c3cccnc3)n2)cc1`, with > 64 µM (inactive).
As to `CCOc1cc(CNC2CCCC2)ccc1OCc1ccc(F)cc1`, the IC50 was 10.3 µM (inactive).
With `CCOc1cc(CNC2CCCC2)cc(Cl)c1OCc1ccccc1F`, the IC50 is 0.767 µM.
The figure for `Clc1ccc(-c2csc(-c3cccnc3)n2)cc1` is 1.51 µM; for `Cc1ccc(-c2csc(-c3cccnc3)n2)cc1` it is 30 µM (inactive); for `COc1ccc(-c2csc(-c3ccncc3)n2)cc1` it is 18 µM (inactive).
Then `CCOc1cc(CNC2CCCC2)cc(Cl)c1OCc1ccc(OC)cc1`, with > 64 µM (inactive); and `CCOc1cc(C(=O)NC2CCCC2)cc(Cl)c1OCc1ccc(F)cc1`, with > 64 µM (inactive).
On to `CCOc1cc(CNC2CCCC2)cc(Cl)c1OC`, for which the IC50 was > 64 µM (inactive).
For the compound `COc1cc(CNC2CCCC2)cc(Cl)c1OCc1ccc(F)cc1`, the IC50 is 0.826 µM.
